Earlier results in publication PMC4452912 (Viruses, 2015).

Key:
[1] = test system: DENV-2; design: method as in ref 16 = [16]; details: DENV-2 ADE mouse model; cited from earlier work
[2] = test system: DENV, HCV, and HIV; design: method as in ref 3 = [3]; details: cited from earlier work
[3] = mouse, in vivo; cited from earlier work

Structure (SMILES): COCCCCCCCCCN1C[C@H](O)[C@@H](O)[C@H](O)[C@H]1CO [UV-4]
- dose range promoting survival [1]: 10 to 20 mg/kg

Structure (SMILES): CCCCN1C[C@H](O)[C@@H](O)[C@H](O)[C@H]1CO [NB-DNJ, N-butyl-deoxynojirimycin]
- concentrations required for broad-spectrum antiviral activity in vitro [2]: > 30 µM
- thymus effect [3]: thymus weight loss
